The results in this text go back to US20230365592A1 (Agios Pharmaceuticals, Inc., priority 2022, published 2023).

The target of the test is T1, human PAH with the R408W mutation (Homo sapiens, UniProt P00439, R408W).
T1 construct: expressed in transfected cells
T1 sequence (P00439 1-452 R408W): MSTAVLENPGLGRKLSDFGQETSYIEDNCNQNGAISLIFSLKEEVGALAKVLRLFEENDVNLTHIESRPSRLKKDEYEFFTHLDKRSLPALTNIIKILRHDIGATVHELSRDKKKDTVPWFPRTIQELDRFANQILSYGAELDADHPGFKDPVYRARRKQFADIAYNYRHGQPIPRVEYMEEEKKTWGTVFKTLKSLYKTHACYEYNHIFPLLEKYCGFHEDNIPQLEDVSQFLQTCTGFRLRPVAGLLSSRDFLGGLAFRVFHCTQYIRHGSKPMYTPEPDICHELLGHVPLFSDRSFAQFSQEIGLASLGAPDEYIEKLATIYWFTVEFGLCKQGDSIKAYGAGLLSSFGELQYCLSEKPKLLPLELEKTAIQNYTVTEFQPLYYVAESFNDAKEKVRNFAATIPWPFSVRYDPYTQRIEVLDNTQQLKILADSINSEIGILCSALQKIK
Description: Cell Based Phenylalanine Flux Assay.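 Note: after compound treatment, cells received sepiapterin plus isotope-labelled Phenylalanine for 4 hours, then labelled Tyrosine in the medium was quantified, 10-point 2-fold dilution series run in duplicate.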 The conditions noted are these: A375 cells expressing human PAH R408W; 24 hrs compound incubation; 13C-Tyrosine by LC-MS; average where tested multiple times; read-out: AC50.
With `FC(F)(F)c1ccc(N2CCc3[nH]cnc3[C@H]2c2cc3c(C4CC4)cccn3n2)nc1` [Example 2170, (S)-4-(4-cyclopropylpyrazolo[1,5-a]pyridin-2-yl)-5-(5-(trifluoromethyl)pyridin-2-yl)-4,5,6,7-tetrahydro-1H-imidazo[4,5-c]pyridine], the AC50 is under 500 nM.
On to `FC(F)(F)c1ccc(N2CCc3[nH]cnc3[C@@H]2c2cc3c(C4CC4)cccn3n2)nc1` [Example 2171, (R)-4-(4-cyclopropylpyrazolo[1,5-a]pyridin-2-yl)-5-(5-(trifluoromethyl)pyridin-2-yl)-4,5,6,7-tetrahydro-1H-imidazo[4,5-c]pyridine], for which the AC50 was over 5000 nM.
In the case of `c1cnc(N2CCc3[nH]cnc3[C@H]2c2cc3c(C4CC4)cccn3n2)nc1` [Example 2172, (S)-4-(4-cyclopropylpyrazolo[1,5-a]pyridin-2-yl)-5-(pyrimidin-2-yl)-4,5,6,7-tetrahydro-1H-imidazo[4,5-c]pyridine] it was under 500 nM.
In the case of `c1cnc(N2CCc3[nH]cnc3[C@@H]2c2cc3c(C4CC4)cccn3n2)nc1` [Example 2173, (R)-4-(4-cyclopropylpyrazolo[1,5-a]pyridin-2-yl)-5-(pyrimidin-2-yl)-4,5,6,7-tetrahydro-1H-imidazo[4,5-c]pyridine] it was 1000 to 5000 nM; in that of `FC(F)(F)c1cnc(N2CCc3[nH]cnc3[C@H]2c2cc3c(C4CC4)cccn3n2)nc1` [Example 2174, (S)-4-(4-cyclopropylpyrazolo[1,5-a]pyridin-2-yl)-5-(5-(trifluoromethyl)pyrimidin-2-yl)-4,5,6,7-tetrahydro-1H-imidazo[4,5-c]pyridine], under 500 nM.
In the case of `FC(F)(F)c1cnc(N2CCc3[nH]cnc3[C@@H]2c2cc3c(C4CC4)cccn3n2)nc1` [Example 2175, (R)-4-(4-cyclopropylpyrazolo[1,5-a]pyridin-2-yl)-5-(5-(trifluoromethyl)pyrimidin-2-yl)-4,5,6,7-tetrahydro-1H-imidazo[4,5-c]pyridine] it was over 5000 nM; in that of `Fc1cccn2nc([C@H]3c4nc[nH]c4CCN3c3nnc(-c4ccncn4)o3)cc12` [Example 2179, (R)-2-(4-(4-fluoropyrazolo[1,5-a]pyridin-2-yl)-1,4,6,7-tetrahydro-5H-imidazo[4,5-c]pyridin-5-yl)-5-(pyrimidin-4-yl)-1,3,4-oxadiazole], over 5000 nM.
For the compound `CC(C)c1cccn2nc([C@@H]3c4nc[nH]c4CCN3c3nnc(-c4ccncn4)o3)cc12` [Example 2180, (S)-2-(4-(4-isopropylpyrazolo[1,5-a]pyridin-2-yl)-1,4,6,7-tetrahydro-5H-imidazo[4,5-c]pyridin-5-yl)-5-(pyrimidin-4-yl)-1,3,4-oxadiazole], the AC50 was 500 to 1000 nM.
`CC(C)c1cccn2nc([C@H]3c4nc[nH]c4CCN3c3nnc(-c4ccncn4)o3)cc12` [Example 2181, (R)-2-(4-(4-isopropylpyrazolo[1,5-a]pyridin-2-yl)-1,4,6,7-tetrahydro-5H-imidazo[4,5-c]pyridin-5-yl)-5-(pyrimidin-4-yl)-1,3,4-oxadiazole]: the AC50 was over 5000 nM.
In the case of `Clc1cccn2nc([C@H]3c4nc[nH]c4CCN3c3nnc(-c4ccncn4)o3)cc12` [Example 2183, (R)-2-(4-(4-chloropyrazolo[1,5-a]pyridin-2-yl)-1,4,6,7-tetrahydro-5H-imidazo[4,5-c]pyridin-5-yl)-5-(pyrimidin-4-yl)-1,3,4-oxadiazole] it was over 5000 nM; in that of `CC(C)c1cccn2nc([C@@H]3c4nc[nH]c4CCN3c3ncc(C(F)(F)F)cn3)cc12` [Example 2185, (S)-4-(4-isopropylpyrazolo[1,5-a]pyridin-2-yl)-5-(5-(trifluoromethyl)pyrimidin-2-yl)-4,5,6,7-tetrahydro-1H-imidazo[4,5-c]pyridine], under 500 nM.
In the case of `Cc1nnc(N2CCc3[nH]cnc3[C@H]2c2cc3c(C4CC4)cccn3n2)o1` [Example 2187, (S)-2-(4-(4-cyclopropylpyrazolo[1,5-a]pyridin-2-yl)-1,4,6,7-tetrahydro-5H-imidazo[4,5-c]pyridin-5-yl)-5-methyl-1,3,4-oxadiazole] it was under 500 nM; in that of `Cc1cccn2nc([C@@H]3c4nc[nH]c4CCN3c3nnc(C4(C)CC4)o3)cc12` [Example 2189, (S)-2-(1-methylcyclopropyl)-5-(4-(4-methylpyrazolo[1,5-a]pyridin-2-yl)-1,4,6,7-tetrahydro-5H-imidazo[4,5-c]pyridin-5-yl)-1,3,4-oxadiazole], 500 to 1000 nM; in that of `CC(F)(F)c1nnc(N2CCc3[nH]cnc3[C@H]2c2cc3ccccn3n2)o1` [Example 2191, (S)-2-(1,1-difluoroethyl)-5-(4-(pyrazolo[1,5-a]pyridin-2-yl)-1,4,6,7-tetrahydro-5H-imidazo[4,5-c]pyridin-5-yl)-1,3,4-oxadiazole], 500 to 1000 nM.
In the case of `Cc1cccn2nc([C@@H]3c4nc[nH]c4CCN3c3nnc(C(C)(F)F)o3)cc12` [Example 2193, (S)-2-(1,1-difluoroethyl)-5-(4-(4-methylpyrazolo[1,5-a]pyridin-2-yl)-1,4,6,7-tetrahydro-5H-imidazo[4,5-c]pyridin-5-yl)-1,3,4-oxadiazole] it was under 500 nM; in that of `CC(F)(F)c1nnc(N2CCc3[nH]cnc3[C@H]2c2cc3c(C(F)(F)F)cccn3n2)o1` [Example 2195, (S)-2-(1,1-difluoroethyl)-5-(4-(4-(trifluoromethyl)pyrazolo[1,5-a]pyridin-2-yl)-1,4,6,7-tetrahydro-5H-imidazo[4,5-c]pyridin-5-yl)-1,3,4-oxadiazole], under 500 nM.
Regarding `CC(F)(F)c1nnc(N2CCc3[nH]cnc3[C@H]2c2cc3c(F)cccn3n2)o1` [Example 2197, (S)-2-(1,1-difluoroethyl)-5-(4-(4-fluoropyrazolo[1,5-a]pyridin-2-yl)-1,4,6,7-tetrahydro-5H-imidazo[4,5-c]pyridin-5-yl)-1,3,4-oxadiazole], the AC50 was 500 to 1000 nM.
In the case of `Clc1cccn2nc([C@@H]3c4nc[nH]c4CCN3c3nnc(-c4cccnn4)o3)cc12` [Example 2198, (S)-2-(4-(4-chloropyrazolo[1,5-a]pyridin-2-yl)-1,4,6,7-tetrahydro-5H-imidazo[4,5-c]pyridin-5-yl)-5-(pyridazin-3-yl)-1,3,4-oxadiazole] it was 500 to 1000 nM.
In the case of `COc1cccn2nc([C@@H]3c4nc[nH]c4CCN3c3ncc(C(F)(F)F)cn3)cc12` [Example 2200, (S)-4-(4-methoxypyrazolo[1,5-a]pyridin-2-yl)-5-(5-(trifluoromethyl)pyrimidin-2-yl)-4,5,6,7-tetrahydro-1H-imidazo[4,5-c]pyridine] it was under 500 nM; in that of `COc1cccn2nc([C@H]3c4nc[nH]c4CCN3c3ncc(C(F)(F)F)cn3)cc12` [Example 2201, (R)-4-(4-methoxypyrazolo[1,5-a]pyridin-2-yl)-5-(5-(trifluoromethyl)pyrimidin-2-yl)-4,5,6,7-tetrahydro-1H-imidazo[4,5-c]pyridine], over 5000 nM; in that of `CC(F)(F)c1nnc(N2CCc3[nH]cnc3[C@@H]2c2cc3c(C(F)F)cccn3n2)o1` [Example 2202, (R)-2-(1,1-difluoroethyl)-5-(4-(4-(difluoromethyl)pyrazolo[1,5-a]pyridin-2-yl)-1,4,6,7-tetrahydro-5H-imidazo[4,5-c]pyridin-5-yl)-1,3,4-oxadiazole], over 5000 nM.
In the case of `CC(F)(F)c1nnc(N2CCc3[nH]cnc3[C@H]2c2cc3c(C(F)F)cccn3n2)o1` [Example 2203, (S)-2-(1,1-difluoroethyl)-5-(4-(4-(difluoromethyl)pyrazolo[1,5-a]pyridin-2-yl)-1,4,6,7-tetrahydro-5H-imidazo[4,5-c]pyridin-5-yl)-1,3,4-oxadiazole] it was under 500 nM; in that of `CC(F)(F)c1nnc(N2CCc3[nH]cnc3[C@H]2c2cc3c(C4CC4)cccn3n2)o1` [Example 2205, (S)-2-(4-(4-cyclopropylpyrazolo[1,5-a]pyridin-2-yl)-1,4,6,7-tetrahydro-5H-imidazo[4,5-c]pyridin-5-yl)-5-(1,1-difluoroethyl)-1,3,4-oxadiazole], under 500 nM; in that of `Cc1ncccc1-c1nnc(N2CCc3[nH]cnc3[C@@H]2c2cc3c(C)cccn3n2)o1` [Example 2207, (R)-2-(4-(4-methylpyrazolo[1,5-a]pyridin-2-yl)-1,4,6,7-tetrahydro-5H-imidazo[4,5-c]pyridin-5-yl)-5-(2-methylpyridin-3-yl)-1,3,4-oxadiazole], over 5000 nM.
Consider `FC(F)c1nnc(N2CCc3[nH]cnc3[C@@H]2c2cc3cccc(C(F)F)n3n2)o1` [Example 2220, (R)-2-(difluoromethyl)-5-(4-(7-(difluoromethyl)pyrazolo[1,5-a]pyridin-2-yl)-1,4,6,7-tetrahydro-5H-imidazo[4,5-c]pyridin-5-yl)-1,3,4-oxadiazole], for which the AC50 is over 5000 nM.
In the case of `FC(F)c1nnc(N2CCc3[nH]cnc3[C@H]2c2cc3cccc(C(F)F)n3n2)o1` [Example 2221, (S)-2-(difluoromethyl)-5-(4-(7-(difluoromethyl)pyrazolo[1,5-a]pyridin-2-yl)-1,4,6,7-tetrahydro-5H-imidazo[4,5-c]pyridin-5-yl)-1,3,4-oxadiazole] it was 1000 to 5000 nM; in that of `O=C([C@H]1CC1(F)F)N1CCc2[nH]cnc2[C@H]1c1cc2c(F)cccn2n1` [Example 2223, ((R)-2,2-difluorocyclopropyl)((S)-4-(4-fluoropyrazolo[1,5-a]pyridin-2-yl)-1,4,6,7-tetrahydro-5H-imidazo[4,5-c]pyridin-5-yl)methanone], 1000 to 5000 nM.
